US20110250254A1, “ANTIMICROBIAL COMPOSITIONS AND USES” (priority 2008, published 2011)
Read-outs that look alike come from different tables or passages of the source.

How the values were obtained:
Type in all cases: cell-based
V. harveyi [1] = assay: Shaking biofilm model (200 rpm), safranine staining
Description: (§1) According to the static biofilm model, a given thiophenone 200 μmol/L was dissolved in 500 μl absolute ethanol and applied to wells of a standard 24 well microtiter plate. The ethanol was evaporated from the wells in a laminar air sterile work bench at room temperature so as to leave a coating of the thiophenone in the well. A sample of bacteria was then added to the well and incubated for a given period of time. After incubation, the percentage of bacteria remaining was assessed by safranine staining of the biofilm. Bound safranine was released by acetic acid and optical density was measured in Synergy HT Multi-Detection Microplate Reader and compared to a control.
(§2) According to the shaking biofilm model, the microtiter plates were shaken (200 rpm) in a Minitron Incubator Shaker during biofilm formation.

S. epidermidis [2] = assay: as above; settings: Staphylococcus epidermidis, S. epidermidis, read-out: Shaking biofilm model % Remaining
Description: as §1, §2

V. harveyi [3] = assay: Static biofilm model, safranine staining; settings: 4 h incubation
Description: as §1

Pseudoalteromonas = assay: Static biofilm model, safranine staining; settings: 4 h incubation
Description: as §1

E. faecalis = assay: Static biofilm model, safranine staining; settings: 4 h incubation
Description: as §1

S. epidermidis [4] = assay: Static biofilm model, safranine staining; settings: 6 h incubation, thiophenone 200 μmol/L coating
Description: as §1

[5] = tested on: Vibrio harveyi BB886 (AI-1 reporter); assay: Bioluminescence assay of AI-1 quorum-sensing; settings: compared with the corresponding furanone compound
Description: (§3) The effect of (Z)-5-(bromomethylene) thiophen-2(5H)-one on AI-1 and AI-2 quorum-sensing by bacteria was tested in a bioluminescence assay as follows:
(§4) Inhibition of quorum sensing was assessed as the ability of the furanone to reduce bioluminescence induced by cell free bacterial culture supernatant containing either AI-1 or AI-2 signal molecules. Vibrio harveyi BB886 was used as an AI-1 reporter and Vibrio harveyi BB170 was used as reporter of AI-2 communication.

[6] = tested on: Vibrio harveyi BB170 (AI-2 reporter); assay: Bioluminescence assay of AI-2 quorum-sensing; settings: compared with the corresponding furanone compound
Description: as §3, §4

## O=C1C=C/C(=C/Br)S1 [Thio101, (Z)-5-(bromomethylene) thiophen-2(5H)-one]
V. harveyi [1]; 8 h incubation
  Shaking biofilm model % Remaining: 54%
V. harveyi [1]; 18 h incubation
  Shaking biofilm model % Remaining: 56%
S. epidermidis [2]; 6 h incubation
  activity at 200 µM: 13%
S. epidermidis [2]; 20 h incubation
  activity at 200 µM: 15%
V. harveyi [3]; coating
  Static biofilm model % Remaining: 20%
V. harveyi [3]; in medium
  Static biofilm model % Remaining: 9%
Pseudoalteromonas; coating
  Static biofilm model % Remaining: 52%
Pseudoalteromonas; in medium
  Static biofilm model % Remaining: 36%
E. faecalis; coating
  Static biofilm model % Remaining: 66%
E. faecalis; in medium
  Static biofilm model % Remaining: 32%
S. epidermidis [4]
  Static biofilm model % Remaining: 28%
[5]
  Inhibition of AI-1 quorum-sensing: considerably more effective
[6]
  Inhibition of AI-2 quorum-sensing: considerably more effective
